Reference: ChEMBL document CHEMBL1122257, “Synthesis and anticonvulsant activity of some tetracyclic indole derivatives” (1983)

How the values were obtained:
Type in all cases: functional
[1] = test system: Rattus norvegicus; assay: Tested anticonvulsant activity in 6 rats after oral administration of 30 mg/kg po dose for rotarod performance; 0/6
[2] = test system: Rattus norvegicus; assay: Tested for anticonvulsant activity in 3 rats after oral administration of 30 mg/kg po dose for protection against maximal electroshock in rat MES test; 0/3
[3] = test system: Rattus norvegicus; assay: Anticonvulsant activity in rats after oral administration of 30 mg/kg dose(effective dosage)
[4] = test system: Rattus norvegicus; assay: Tested for anticonvulsant activity in 3 rats after oral administration of 30 mg/kg po dose for protection against maximal electroshock in rat MES test; 2/3
[5] = test system: Rattus norvegicus; assay: Tested for anticonvulsant activity in 3 rats after oral administration of 30 mg/kg po dose for protection against maximal electroshock in rat MES test; 3/3
[6] = test system: Rattus norvegicus; assay: Tested anticonvulsant activity in 6 rats after oral administration of 300 mg/kg po dose for rotarod performance; 0/6
[7] = test system: Rattus norvegicus; assay: Tested anticonvulsant activity in 6 rats after oral administration of 30 mg/kg po dose for rotarod performance; 1/6
[8] = test system: Rattus norvegicus; assay: Tested for anticonvulsant activity in 3 rats after oral administration of 30 mg/kg po dose for protection against maximal electroshock in rat MES test; 1/3
[9] = test system: Rattus norvegicus; assay: Anticonvulsant activity in rats after oral administration of 30 mg/kg dose for rotarod performance; 0/6

SMILES | Reactors/Test group [1] | Reactors/Test group [2] | other results
CN(C)C(=O)C1CCc2cccc3c4c(n1c23)CCCCC4 (stereo unspecified) | 0 | 0 | –
CN(C)CC1Cc2cccc3c4c(n(c23)C1)CCCCC4 (stereo unspecified) | 0 | 0 | –
CN(C)CC1Cc2cccc3c4c(n1c23)CCCCCC4 (stereo unspecified) | 0 | 0 | –
CN(C)CC1CCc2cccc3c4c(n1c23)CCCCC4 (stereo unspecified) | 0 | – | ED50 [3]: 78.9 mg/kg; Reactors/Test group [4]: 2
CN(C)CCC1CCc2cccc3c4c(n1c23)CCCCC4 (stereo unspecified) | 0 | – | ED50 [3]: 27.4 mg/kg; Reactors/Test group [5]: 3
CN(C)CC1CCc2cccc3c4c(n1c23)-c1ccccc1SC4 (stereo unspecified) | 0 | 0 | –
CN(C)CC1Cc2cccc3c4c(n1c23)CCCC4 (stereo unspecified) | 0 | – | ED50 [3]: 19.2 mg/kg; Reactors/Test group [5]: 3
CN(C)CCC1CCc2cccc3c4c(n1c23)CCN(C)C4 (stereo unspecified) | 0 | 0 | –
CN(C)CC1CCc2cccc3c4c(n1c23)CCCCCC4 (stereo unspecified) | 0 | 0 | –
CN(C)CC1Cn2c3c(c4cccc1c42)CCCCCC3 (stereo unspecified) | 0 | 0 | –
CN(C)CC1CCc2cccc3c4c(n1c23)CCC4 (stereo unspecified) | 0 | – | ED50 [3]: 12.5 mg/kg; Reactors/Test group [5]: 3
CN(C)CC1Cn2c3c(c4cccc1c42)CCCCC3 (stereo unspecified) | 0 | 0 | –
CN(C)CC1CCc2cccc3c4c(n1c23)CCCC4 (stereo unspecified) | – | – | Reactors/Test group [6]: 0; Reactors/Test group [5]: 3
CN1CCN(C(=O)C2CCc3cccc4c5c(n2c34)CCCCC5)CC1 (stereo unspecified) | 0 | 0 | –
CN(C)CCC1CCc2cccc3c4c(n1c23)CCCC4 (stereo unspecified) | 0 | – | Reactors/Test group [4]: 2
CNC(=O)C1CCc2cccc3c4c(n1c23)CCCC4 (stereo unspecified) | 0 | 0 | –
CNC(=O)C1CCc2cccc3c4c(n1c23)CCC4 (stereo unspecified) | 0 | 0 | –
CN(C)CCC1CCc2cccc3c4c(n1c23)CCCCCC4 (stereo unspecified) | 0 | 0 | –
CN(C)CC1CCc2cccc3c4c(n1c23)-c1ccccc1CC4 (stereo unspecified) | – | – | Reactors/Test group [7]: 1; Reactors/Test group [8]: 1
CNC(=O)C1CCc2cccc3c4c(n1c23)CCCCC4 (stereo unspecified) | 0 | – | ED50 [3]: 12.9 mg/kg; Reactors/Test group [5]: 3
CN(C)CC1CCc2cccc3c4c(n1c23)CCSC4 (stereo unspecified) | 0 | 0 | –
CN(C)CCC1CCc2cccc3c4c(n1c23)CCSC4 (stereo unspecified) | – | 0 | Reactors/Test group [7]: 1
CN(C)CCC1CCc2cccc3c4c(n1c23)CCC4 (stereo unspecified) | 0 | 0 | –
CN(C)CC1Cc2cccc3c4c(n(c23)C1)Cc1ccccc1-4 (stereo unspecified) | – | 0 | Reactors/Test group [7]: 1
CN(C)CC1Cc2cccc3c4c(n(c23)C1)CCCCCC4 (stereo unspecified) | – | 0 | Reactors/Test group [7]: 1
CN(C)CC1Cc2cccc3c4c(n1c23)CCCCC4 (stereo unspecified) | 0 | 0 | –
CNCC1CCc2cccc3c4c(n1c23)CCCCC4 (stereo unspecified) | 0 | 0 | –
O=C1NC(=O)C(c2ccccc2)(c2ccccc2)N1 [PHENYTOIN] | – | – | ED50 [3]: 42.3 mg/kg; Reactors/Test group [9]: 0
